# Measurements as given in PubChem BioAssay AID1963966 (Molecular Pharmacology Branch, DTP, NCI, 2024).
# System: 935938-334-R-J1-PDC spheroids with HUVEC/MSC, viability
# Experiment: Anticancer human tumor 935938-334-R-J1-PDC patient-derived small intestine adenocarcinoma cell line growth inhibition [PI3K]
# Details: for IC50: curve of first compound; for viability, T/C: stronger effect = lower value
# Source text: Combinatorial screen of targeted agents with the PI3K inhibitors inavolisib, alpelisib, duvelisib, and copanlisib in multi-cell type tumor spheroids
# A high-throughput screen of multi-cell type tumor spheroids was designed to identify active combinations of targeted small molecules and PI3K pathway inhibitors. Complex spheroids include a stromal component modeled by human endothelial cells (HUVEC) and fibroblasts modeled by human mesenchymal stem cells (MSCs). The concentration ranges selected for each drug and investigational agent were based upon clinically achievable concentrations if the clinical Cmax of the agent was known.
# Compounds. The drugs and investigational agents: inavolisib (NSC800729), alpelisib (NSC765974), duvelisib (NSC772469), copanlisib (NSC816437), ipatasertib (NSC767898), afuresertib (NSC778305), talazoparib (NSC767125), sapanisertib (NSC764658), selumetinib (NSC741078), tovorafenib (DAY101, NSC766906), vemurafenib (NSC761431), ravoxertinib (NSC781343), sotorasib (NSC818433), MRTX1133 (NSC 836407), abemaciclib (NSC 768073), palbociclib (NSC758247), venetoclax (NSC 766270), SY5609 (NSC837396), enzalutamide (NSC755605), and darolutamide (NSC825331), were obtained from the National Cancer Institute (NCI) Developmental Therapeutics Program Chemical Repository. The FDA-approved anticancer drug set is available from the NCI Developmental Therapeutics Program. […] The stock solutions were prepared in dimethyl sulfoxide (DMSO, Sigma-Aldrich, St. Louis, MO, cat. D2650) at 800-fold the tested concentration and stored at -70 degrees C prior to their use. All drugs and investigational agents were tested over a range starting from a high concentration at or near the clinical Cmax and decreasing in half-log increments. If the clinical Cmax for an agent had not been determined, the highest concentration tested was 10 microM.
# Cell Culture. All cells were maintained in an incubator at 37 degrees C and 5% CO2 with 95% humidity. The PDC lines were cultured according to standard operating procedures established by the NCI PDMR (https://pdmr.cancer.gov/sops/default.htm). All PDCs were thawed and cultured in Matrigel-coated flasks prepared with a working solution of 1X Ham's F-12 nutrient mix, without supplementation (Invitrogen, Waltham, MA, cat. 11765054), 100 U/mL penicillin-streptomycin (Invitrogen, cat. 15140122), and 2.5% Matrigel (Corning Inc., Corning, NY, cat. 354248) for the first three passages. The 354836-022-R-J1-PDC, 475296-252-R-J1-PDC, and 997726-040-R-J2-PDC lines were cultured in 6A media, which includes advanced DMEM/F-12 (Thermo Fisher Scientific, cat. 12634028), 10 mM HEPES (Thermo Fisher Scientific, cat. 15630080), 1X GlutaMAX supplement (Thermo Fisher Scientific, cat. 35050061), 0.1 mg/mL primocin (InvivoGen, San Diego, CA, cat. ant-pm-2), 10% defined fetal bovine serum, heat inactivated (HyClone Laboratories Inc., Logan, UT, cat. SH30070.03HI), 50% L-WRN conditioned media (ATCC, cat. CRL-3276), 1.25 mM N-Acetyl-L-cysteine (Sigma-Aldrich, cat. A9165), 10 mM nicotinamide (Sigma-Aldrich, cat. N0636), 1X B-27 supplement (Thermo Fisher Scientific, cat. 17504044), 1X N-2 supplement (Thermo Fisher Scientific, cat. 17502048), and 10 microM Y-27632 dihydrochloride (Tocris Bioscience, Bristol, United Kingdom, cat. 1254). The 624824-186-R-J2-PDC line was cultured in 6C/Colon 1B media, which includes all 6A media components plus 50 ng/mL human EGF recombinant protein (Thermo Fisher Scientific, cat. PHG0311). […]
# [1] = second compound 0.00316 µM, first compound 0.0316 µM
# [2] = second compound 0.00316 µM, first compound 0.1 µM
# [3] = second compound 0.00316 µM, first compound 0.316 µM
# [4] = second compound 0.00316 µM, first compound 1 µM
# [5] = second compound 0.00316 µM, first compound 3.16 µM
# [6] = second compound 0.00316 µM, first compound 10 µM
# [7] = second compound 0.01 µM, first compound 0.0316 µM
# [8] = second compound 0.01 µM, first compound 0.1 µM
# [9] = second compound 0.01 µM, first compound 0.316 µM
# [10] = second compound 0.01 µM, first compound 1 µM
# [11] = second compound 0.01 µM, first compound 3.16 µM
# [12] = second compound 0.01 µM, first compound 10 µM
# [13] = second compound 0.0316 µM, first compound 0.0316 µM
# [14] = second compound 0.0316 µM, first compound 0.1 µM
# [15] = second compound 0.0316 µM, first compound 0.316 µM
# [16] = second compound 0.0316 µM, first compound 1 µM
# [17] = second compound 0.0316 µM, first compound 3.16 µM
# [18] = second compound 0.0316 µM, first compound 10 µM
# [19] = second compound 0.1 µM, first compound 0.0316 µM
# [20] = second compound 0.1 µM, first compound 0.1 µM
# [21] = second compound 0.1 µM, first compound 0.316 µM
# [22] = second compound 0.1 µM, first compound 1 µM
# [23] = second compound 0.1 µM, first compound 3.16 µM
# [24] = second compound 0.1 µM, first compound 10 µM
# [25] = second compound 0.316 µM, first compound 0.0316 µM
# [26] = second compound 0.316 µM, first compound 0.1 µM
# [27] = second compound 0.316 µM, first compound 0.316 µM
# [28] = second compound 0.316 µM, first compound 1 µM
# [29] = second compound 0.316 µM, first compound 3.16 µM
# [30] = second compound 0.316 µM, first compound 10 µM
# [31] = second compound 1 µM, first compound 0.0316 µM
# [32] = second compound 1 µM, first compound 0.1 µM
# [33] = second compound 1 µM, first compound 0.316 µM
# [34] = second compound 1 µM, first compound 1 µM
# [35] = second compound 1 µM, first compound 3.16 µM
# [36] = second compound 1 µM, first compound 10 µM
# 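Further: compound exposure lasted seven days before viability was read.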
# 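Wherever viability, T/C is given: percent of vehicle DMSO treated spheroid viability so 100% = untreated.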
smiles,measurement,setting,value
C#Cc1c(F)ccc2cc(O)cc(-c3ncc4c(N5CC6CCC(C5)N6)nc(OCC56CCCN5CC(F)C6)nc4c3F)c12 (centres undefined) + CC(Nc1ccc2c(c1)OCCn1cc(N3C(=O)OCC3C(F)F)nc1-2)C(N)=O,IC50,second compound 0.00316 µM,3.79 µM
same,IC50,second compound 0.01 µM,3.11 µM
same,IC50,second compound 0.0316 µM,1.87 µM
same,IC50,second compound 0.1 µM,0.922 µM
same,IC50,second compound 0.316 µM,0.513 µM
same,IC50,second compound 1 µM,0.102 µM
same,"viability, T/C",[1],86.7%
same,"viability, T/C",[2],88.4%
same,"viability, T/C",[3],76%
same,"viability, T/C",[4],67.9%
same,"viability, T/C",[5],52.8%
same,"viability, T/C",[6],36.1%
same,"viability, T/C",[7],106%
same,"viability, T/C",[8],74%
same,"viability, T/C",[9],80.1%
same,"viability, T/C",[10],69.1%
same,"viability, T/C",[11],52%
same,"viability, T/C",[12],31.1%
same,"viability, T/C",[13],94.7%
same,"viability, T/C",[14],80.1%
same,"viability, T/C",[15],83.2%
same,"viability, T/C",[16],61.3%
same,"viability, T/C",[17],39.7%
same,"viability, T/C",[18],28.8%
same,"viability, T/C",[19],89.1%
same,"viability, T/C",[20],84.1%
same,"viability, T/C",[21],47.5%
same,"viability, T/C",[22],56.7%
same,"viability, T/C",[23],39.7%
same,"viability, T/C",[24],28.2%
same,"viability, T/C",[25],67.6%
same,"viability, T/C",[26],71%
same,"viability, T/C",[27],60.7%
same,"viability, T/C",[28],34.7%
same,"viability, T/C",[29],31.3%
same,"viability, T/C",[30],22.8%
same,"viability, T/C",[31],49.5%
same,"viability, T/C",[32],51.2%
same,"viability, T/C",[33],47.5%
same,"viability, T/C",[34],35.2%
same,"viability, T/C",[35],25%
same,"viability, T/C",[36],17.2%
C=CC(=O)N1CCN(c2nc(=O)n(-c3c(C)ccnc3C(C)C)c3nc(-c4c(O)cccc4F)c(F)cc23)C(C)C1 (centres undefined) + CC(Nc1ccc2c(c1)OCCn1cc(N3C(=O)OCC3C(F)F)nc1-2)C(N)=O,IC50,second compound 0.00316 µM,> 10 µM
same,IC50,second compound 0.01 µM,> 10 µM
same,IC50,second compound 0.0316 µM,> 10 µM
same,IC50,second compound 0.1 µM,> 10 µM
same,IC50,second compound 0.316 µM,> 10 µM
same,IC50,second compound 1 µM,8.04 µM
same,"viability, T/C",[1],101%
same,"viability, T/C",[2],99.6%
same,"viability, T/C",[3],103%
same,"viability, T/C",[4],99.3%
same,"viability, T/C",[5],91%
same,"viability, T/C",[6],106%
same,"viability, T/C",[7],96.9%
same,"viability, T/C",[8],85%
same,"viability, T/C",[9],90.4%
same,"viability, T/C",[10],87.9%
same,"viability, T/C",[11],92.5%
same,"viability, T/C",[12],98.2%
same,"viability, T/C",[13],134%
same,"viability, T/C",[14],119%
same,"viability, T/C",[15],101%
same,"viability, T/C",[16],86%
same,"viability, T/C",[17],85.8%
same,"viability, T/C",[18],93.3%
same,"viability, T/C",[19],88.4%
same,"viability, T/C",[20],84.4%
same,"viability, T/C",[21],98.3%
same,"viability, T/C",[22],104%
same,"viability, T/C",[23],89.5%
same,"viability, T/C",[24],97.7%
same,"viability, T/C",[25],80.9%
same,"viability, T/C",[26],80.5%
same,"viability, T/C",[27],71%
same,"viability, T/C",[28],74.2%
same,"viability, T/C",[29],72.5%
same,"viability, T/C",[30],68.1%
same,"viability, T/C",[31],86%
same,"viability, T/C",[32],67.6%
same,"viability, T/C",[33],66.3%
same,"viability, T/C",[34],80.3%
same,"viability, T/C",[35],86.9%
same,"viability, T/C",[36],43.5%
